Here are results for 13 compounds from US20110065760A1, “COMPOUNDS FOR THE INHIBITION OF ROTAMASES AND USE THEREOF” (Jerini AG, priority 2002, published 2011).

Series [1] is described as follows: WST-1 cytotoxicity assay, PC-3. The class given is cell-based. The settings on record: human, PC-3 cells (prostate carcinoma); WST-1, 48 h incubation; read-out: EC50 class, cytotoxic effect, CL-3 (PC-3). As for the experimental part:
(§1) For this cytotoxic evaluation of the compounds the commercial available WST-1 assay (Roche) was used according to the manufacturer's instructions. The assay is based on the cleavage of the tetrazolium salt WST-1 by mitochondrial dehydrogenases found in viable cells. In general compounds were added to cells cultured in 96-well plates at 37° C. After 48 h of incubation 10 μl of WST-1 solution was added. The formazan dye was analyzed with an ELISA plate reader at (450 vs. 620) nm. CL-1: human acute myeloid leukemia, HL-60 CL-2: human cervix carcinoma, HeLa CL-3: human prostate carcinoma, PC-3 CL-4: human colon adenocarcinoma, Caco-2 CL-5: human breast adenocarcinoma, MCF-7

The nature of series [2]: WST-1 cytotoxicity assay, Caco-2. Format: cell-based. To be noted: human, Caco-2 cells (colon adenocarcinoma); WST-1, 48 h incubation; read-out: EC50 class, cytotoxic effect, CL-4 (Caco-2). As for the experimental part: as §1
A short description of series [3]: WST-1 cytotoxicity assay, HL-60. The class given is cell-based. The settings on record: human, HL-60 cells (acute myeloid leukemia); WST-1, 48 h incubation; read-out: EC50 class, cytotoxic effect, CL-1 (HL-60). As for the experimental part: as §1
Series [4] can be described thus: WST-1 cytotoxicity assay, HeLa. The class given is cell-based. The settings on record: human, HeLa cells (cervix carcinoma); WST-1, 48 h incubation; read-out: EC50 class, cytotoxic effect, CL-2 (HeLa). As for the experimental part:
as §1

The nature of series [5]: WST-1 cytotoxicity assay, MCF-7. The class given is cell-based. To be noted: human, MCF-7 cells (breast adenocarcinoma); WST-1, 48 h incubation; read-out: EC50 class, cytotoxic effect, CL-5 (MCF-7). As for the experimental part: as §1
Series [6] has as its system tumor cell lines (HL-60, HeLa, PC-3, Caco-2, MCF-7). The series can be described thus: WST-1 cytotoxicity assay, tumor cell lines (panel statement). The class given is cell-based, human. To be noted: WST-1, 48 h; table 4. As for the experimental part:
as §1

Another series addresses T1, Papain (Carica papaya, UniProt P00784).
T1 sequence (P00784 134-345): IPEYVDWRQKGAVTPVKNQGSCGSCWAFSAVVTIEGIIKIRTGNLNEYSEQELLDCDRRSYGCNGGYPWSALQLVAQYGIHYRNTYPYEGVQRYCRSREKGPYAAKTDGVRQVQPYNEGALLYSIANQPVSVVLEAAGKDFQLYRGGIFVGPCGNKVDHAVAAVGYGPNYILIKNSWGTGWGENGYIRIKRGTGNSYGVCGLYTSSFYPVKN
In words: papain assay. The settings on record: 16 μg/ml papain, 2 mM Bz-DL-Arg-pNA, pH 6.5, 30° C., 30 min incubation; read-out: IC50 class, Target T-6 (Papain). Format: biochemical. As for the experimental part: (§2) In order to investigate the impact of some of the inventive compounds on the activity of key proteases the following assay was performed: Protease activities were measured spectrophotometrically at 30° C. according to Schomburg and Salzmann (Schomburg, B.; Salzmann M. GBF: Enzyme Handbook. Springer Verlag, Berlin Heidelberg, 1991) and Bergmeyer et al. (Bergmeyer, H. U.; Bergmeyer, J.; Graβl, M. Methods of Enzymatic Analysis, Vol. V Enzymes 3: Peptides, Proteinases and Their Inhibitors. pp 55-371, VCH, Weinheim, 1988). The release of 4-nitroaniline was determined at 390 nm with a Spectramax Plus UV/Vis spectrophotometer (Molecular Devices). The cathepsin B assay was performed in a reaction mixture containing 0.2 μg/ml cathepsin B, 2 mM Z-Arg-Arg-pNA in 88 mM KH2PO4, 12 mM Na2HPO4, 1.33 mM EDTA, 0.03% Brij 35 (pH 5.8). The trypsin assay was carried out in a reaction mixture containing 0.1 μg/ml trypsin and 120 μM Ac-Ala-Ala-Ser(PO3H2)-Pro-Arg-pNA in 35 mM HEPES (pH 7.8) and the papain assay in a mixture consisting of 16 μg/ml papain and 2 mM Bz-DL-Arg-pNA in 10 mM Na2HPO4, 2 mM L-Cys, 5 mM EDTA (pH 6.5). In general, reactions were started by addition of peptide substrate after a 30 min incubation of 1-100 μM effector with given concentrations of enzyme.

Another series concerns the target cathepsin B (Homo sapiens, UniProt P07858). In words: cathepsin B assay. The settings on record: 0.2 μg/ml cathepsin B, 2 mM Z-Arg-Arg-pNA, pH 5.8, 30° C., 30 min incubation; read-out: IC50 class, Target T-8 (Cathepsin). Format: biochemical. As for the experimental part:
as §2

Another series has as its target hCyp18 (Homo sapiens, UniProt P62937). In words: protease-coupled PPIase assay, hCyp18. To be noted: 10 nM hCyp18, substrate Suc-Ala-Phe-Pro-Phe-pNA, chymotrypsin, pH 7.8, 6° C.; read-out: IC50 class, Target T-3 (hCyp18). The class given is biochemical.
The target of the next series is hFKBP12 (Homo sapiens, UniProt P62942). The series can be described thus: protease-coupled PPIase assay, hFKBP12. The settings on record: 20 nM hFKBP12, substrate Suc-Ala-Phe-Pro-Phe-pNA, chymotrypsin, pH 7.8, 6° C.; read-out: IC50 class, Target T-2 (hFKBP12). Format: biochemical.
The next series addresses LpCyp18 (Legionella pneumophila, UniProt Q5ZRZ4). The series can be described thus: biochemical. To be noted: IC50 class, Target T-4 (LpCyp18).
The target of the next series is EcParvulin (Escherichia coli, UniProt P0A9L5). In words: protease-coupled PPIase assay, EcParvulin. The class given is biochemical.
The next series addresses hPin1 (Homo sapiens, UniProt Q13526). In words: protease-coupled PPIase assay, hPin1. The class given is biochemical. To be noted: 6 nM hPin1, substrate Ac-Ala-Ala-Ser(PO3H2)-Pro-Arg-pNA, trypsin, pH 7.8, 6° C.; read-out: IC50 class, Target T-1 (hPin1).
Series [7] concerns cyclin D1 in MCF-7 and HeLa cells. In words: Cyclin D1 down regulation (western blot marker analysis). Format: cell-based, human. As for the experimental part:
MCF-7 (5×10^5 cells/well) and HeLa cells (1.5×10^5 cells/well) were seeded in 6-well plates and incubated at 37° C. over night. Compounds or DMSO (final solvent concentration 0.1%) were added to the cells and incubated for different times as indicated. Subsequently, cells were lysed in RIPA buffer for 30 min on ice and centrifuged for 20 min at 4° C. After addition of electrophoresis sample buffer (4×) and 50 mM DTT to the supernatant, samples were boiled for 4 min at 95° C. Samples (equivalent to 2×10^5 cells/well) were run on a 15% SDS gel followed by blotting onto PVDF membrane.
The membrane was blocked for 1 h in 10 mM Tris (pH 7.5), 100 mM NaCl, 0.1% Tween-20 and 5% non-fat dry milk (blocking buffer) and incubated for 1 h with mouse anti-hCyclin D1 monoclonal antibody (clone DCS-6, BD Biosciences) diluted to 1 μg/ml in blocking buffer. Blots were washed 3×10 min with 10 mM Tris (pH 7.5), 100 mM NaCl, 0.1% Tween-20 (washing buffer) and incubated with 0.7 μg/ml peroxidase-conjugated sheep anti-mouse IgG (Sigma) in blocking buffer for 1 h. After washing 3×10 min with washing buffer, the plot was developed with the ECL+ detection kit (Amersham Biosciences).

The target of the next series is T2, Trypsin (UniProt P00760).
T2 sequence (P00760 1-246): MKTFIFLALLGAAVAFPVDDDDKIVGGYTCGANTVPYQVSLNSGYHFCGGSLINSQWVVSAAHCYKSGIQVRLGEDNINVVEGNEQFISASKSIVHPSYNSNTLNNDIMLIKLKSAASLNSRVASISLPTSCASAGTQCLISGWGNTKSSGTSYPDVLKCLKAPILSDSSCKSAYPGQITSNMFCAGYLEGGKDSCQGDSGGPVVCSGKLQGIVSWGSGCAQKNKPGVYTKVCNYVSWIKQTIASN
The series can be described thus: trypsin assay. Format: biochemical. To be noted: 0.1 μg/ml trypsin, 120 μM Ac-Ala-Ala-Ser(PO3H2)-Pro-Arg-pNA, pH 7.8, 30° C., 30 min incubation; read-out: IC50 class, Target T-7 (Trypsin). As for the experimental part:
as §2

Where two headings read alike, the source gives them in different places.

EcParvulin, sequence (P0A9L5 whole entry): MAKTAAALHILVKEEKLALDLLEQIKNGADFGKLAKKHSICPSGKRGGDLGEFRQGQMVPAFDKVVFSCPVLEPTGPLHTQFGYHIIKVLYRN
LpCyp18, sequence (Q5ZRZ4 1-164): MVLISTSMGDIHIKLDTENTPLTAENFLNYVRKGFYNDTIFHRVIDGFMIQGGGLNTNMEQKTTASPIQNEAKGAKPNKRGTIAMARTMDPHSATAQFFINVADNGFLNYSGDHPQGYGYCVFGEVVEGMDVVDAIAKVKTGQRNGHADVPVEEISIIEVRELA
hPin1, sequence (Q13526 whole entry): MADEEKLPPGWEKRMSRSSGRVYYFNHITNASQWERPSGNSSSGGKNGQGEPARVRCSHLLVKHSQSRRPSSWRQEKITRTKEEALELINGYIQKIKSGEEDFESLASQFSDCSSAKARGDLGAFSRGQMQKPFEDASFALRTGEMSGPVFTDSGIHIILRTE
hFKBP12, sequence (P62942 whole entry): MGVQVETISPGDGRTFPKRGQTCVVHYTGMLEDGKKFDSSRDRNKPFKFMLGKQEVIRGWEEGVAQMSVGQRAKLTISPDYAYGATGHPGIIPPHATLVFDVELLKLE
hCyp18, sequence (P62937 whole entry): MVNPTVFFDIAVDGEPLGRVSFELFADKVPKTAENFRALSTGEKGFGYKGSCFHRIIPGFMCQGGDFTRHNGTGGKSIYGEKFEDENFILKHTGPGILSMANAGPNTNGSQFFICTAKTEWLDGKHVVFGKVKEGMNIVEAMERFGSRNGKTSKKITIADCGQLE

With `Cc1c(Cl)cc(NC(=S)Nc2ccccc2C(F)(F)F)c(O)c1Cl` [Compound 261], the half-maximal effective concentration (EC50) at 48 h in [1] was 10 to 50 µM; in series [2], 10 to 50 µM; in series [3], below 10 µM; in series [4], 10 to 50 µM; in [5], 10 to 50 µM.
On to `Oc1c(F)cccc1NCc1ccccc1Sc1ccc(Cl)cc1` [Compound 357], for which the 50% effective concentration (EC50) at 48 h in series [1], in series [3] and in [4] was below 10 µM throughout. The “cytotoxic effect on the tumor cell lines tested” value (shortened to “cytotoxic effect”) in [6] is listed as “particular relevance”.
Take `Cc1c(Cl)cc(NCc2cccc(Oc3ccccc3)c2)c(O)c1Cl` [Compound 497]: the IC50 at Papain is above 100 µM; on cathepsin B, 10 to 50 µM.
Regarding `Cc1c(Cl)cc(NC(=O)CC(C)CC(C)(C)C)c(O)c1Cl` (stereo not shown) [Compound 599], the IC50 at hCyp18 was above 100 µM; at hFKBP12, above 100 µM; against LpCyp18 it was 50 to 100 µM; at Papain it was above 100 µM; at cathepsin B it was 50 to 100 µM; at EcParvulin, 10 to 50 µM. Further, the IC50 at hPin1 lay in the range of 1 to 10 µM.
`CC(C)NC(=S)Nc1cc(-c2nc3ccccc3s2)cc(Cl)c1O` [Compound 639]: in series [7], the “cyclin D1 down regulation” value was “particular relevance”. In addition, the EC50 at 48 h in [3] is below 10 µM; in [5], 10 to 50 µM. On hPin1, the IC50 was below 1 µM.
Regarding `O=C(Nc1cc(Cl)cc(Cl)c1O)c1ccc(-c2ccccc2)cc1` [Compound 645], the EC50 at 48 h in [1], in [3], in [4] and in [5] was below 10 µM each time. Moreover, the IC50 at Papain was above 100 µM. The “cytotoxic effect” value in series [6] was “particular relevance”.
For `Cc1c(Cl)cc(NCc2ccco2)c(O)c1Cl` [Compound 646], the IC50 on Papain and at cathepsin B was above 100 µM in each case.
Consider `Cc1c(Cl)cc(NCc2ccccc2C(F)(F)F)c(O)c1Cl` [Compound 649], for which the IC50 is above 100 µM at Papain and 50 to 100 µM on cathepsin B.
Consider `O=C(Nc1cc(Cl)nc(Cl)c1)Nc1cc(Cl)c(O)c(NCc2ccccc2Sc2ccc(Cl)cc2)c1` [Compound 652], for which the EC50 at 48 h in [1] and in series [3] was below 10 µM each time. For the same compound, the “cytotoxic effect” value in series [6] is reported as “particular relevance”.
On to `Cc1c(Cl)cc(NC(=O)NCCCCCCNC(=O)Nc2cc(Cl)c(C)c(Cl)c2O)c(O)c1Cl` [Compound 673], for which, in series [7], the “cyclin D1 down regulation” value is listed as “particular relevance”. Besides, the “cytotoxic effect” value in [6] is recorded as “particular relevance”. Further, the IC50 at hPin1 is below 1 µM. In addition, the EC50 at 48 h in series [5] is below 10 µM.
In the case of `CC(C)(C)CC(C)(C)NC(=O)Nc1cc(Cl)c(O)c(Cl)c1` [Compound 703], the IC50 at hCyp18 was above 100 µM; at hFKBP12 it was above 100 µM; on LpCyp18 it was above 100 µM; at Papain it was above 100 µM; on Trypsin, 50 to 100 µM; on cathepsin B it was above 100 µM. In addition, the figures for the IC50 against EcParvulin and at hPin1 were 1 to 10 µM and below 1 µM, respectively. Further, the EC50 at 48 h in series [1], in series [2], in series [3] and in [4] was 10 to 50 µM each time. For the same compound, the “cytotoxic effect” value in [6] is on record as “particular relevance”.
With `Oc1ccc(NCc2ccccc2Sc2ccc(Cl)cc2)c(O)c1` [Compound 1044], the concentration for half-maximal inhibition (IC50) at hCyp18 was 10 to 50 µM; on hFKBP12, 10 to 50 µM; against LpCyp18, 1 to 10 µM; on EcParvulin (20 nM EcParvulin, substrate Suc-Ala-Phe-Pro-Phe-pNA, chymotrypsin, pH 7.8, 6° C., read-out: IC50 class, Target T-5 (EcParv)) it was 10 to 50 µM; on hPin1, below 1 µM. The EC50 at 48 h in [1], in series [3] and in series [4] was 10 to 50 µM throughout. Besides, the “cytotoxic effect” value in series [6] was “particular relevance”.
`CC(C)=CC(=O)Nc1cc(Cl)c(O)c(Cl)c1` [Compound 1296]: the IC50 at hCyp18 is 10 to 50 µM; on hFKBP12, above 100 µM; at LpCyp18 it was above 100 µM; on Papain, above 100 µM; on Trypsin it was above 100 µM; on cathepsin B, above 100 µM. Besides, the IC50 on EcParvulin was in the range of 10 to 50 µM; at hPin1, 1 to 10 µM. Further, in [3], the 50% effective concentration (EC50) at 48 h was in the range of 50 to 100 µM.
